Data: US20210040074A1 (The United States of America,as represented by the …, priority 2018, published 2021)
“And” between values parts separate entries of the source, which are not always exact repeats. Identical values can stand only once.

Experiments:
human D1R [1] = biological target: T1, human D1R (Homo sapiens, UniProt P21728); test: [3H]-SCH23390 radioligand competition binding (HEK293 D1R membranes), incl. allosteric ternary complex model
[2] = test system: non D1R containing control cells; test: Forskolin stimulated cAMP accumulation in non D1R containing control cells; format: cell-based
D5 [3] = biological target: T2, D5 (Homo sapiens, UniProt P21918); test: D5 cAMP assay; details: fold change of dopamine EC50, 50 μM compound
T2 sequence (P21918 whole entry): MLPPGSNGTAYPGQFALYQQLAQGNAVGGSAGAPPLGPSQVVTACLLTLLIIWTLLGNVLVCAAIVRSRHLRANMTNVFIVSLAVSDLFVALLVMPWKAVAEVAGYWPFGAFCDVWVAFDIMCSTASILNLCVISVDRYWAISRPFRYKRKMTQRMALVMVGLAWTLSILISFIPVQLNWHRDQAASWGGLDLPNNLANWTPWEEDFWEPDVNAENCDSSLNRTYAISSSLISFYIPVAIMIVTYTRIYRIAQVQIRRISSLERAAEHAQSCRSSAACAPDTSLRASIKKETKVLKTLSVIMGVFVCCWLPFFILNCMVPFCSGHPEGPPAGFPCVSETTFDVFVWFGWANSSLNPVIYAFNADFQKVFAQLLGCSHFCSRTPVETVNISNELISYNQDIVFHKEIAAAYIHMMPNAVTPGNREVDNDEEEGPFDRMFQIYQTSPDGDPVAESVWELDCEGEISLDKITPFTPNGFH
Procedure: (§2) cAMP Accumulation Assay. Assays were performed on D1R-HEK293 (Codex Biosolutions, Gaithersburg, Md.) cells stably expressing the human D1R. HEK293 cell lines were maintained in Dulbecco's modified Eagles medium, supplemented with 10% fetal bovine serum, 100 U/ml penicillin, 100 μg/ml streptomycin, 1 mM sodium pyruvate, and 250 μg/ml G418 and incubated at 37° C., 5% CO2, and 90% humidity. […] After 18-24 h incubation at 37° C., 5% CO2, and 90% humidity, the media was removed and replaced with 5 μL/well PBS. […] Briefly, antibody and working solution was added to each well according to the manufacturer's protocol, and incubated in the dark at room temperature for 60 min. Following incubation, enzyme acceptor reagent was added to the plates and luminescence (RLU) was measured (FDSS μCell, Hamamatsu Photonics K. K., Bridgewater, N.J.) following a 3 h incubation in the dark at room temperature.

D5 [4] = biological target: T2, D5; test: D5R β-arrestin recruitment assay (DiscoverX PathHunter, CHO cells); format: cell-based; parameters: host or cells: CHO-K1; details: for D5 Beta-Arrestin: DA + 50 μM PAM, Fold Change EC50: fold change of dopamine EC50, 50 μM compound
Procedure: (§1) β-arrestin Recruitment Assay. […] Following 18-24 h of incubation, the cells were treated with the indicated concentrations of compound in PBS buffer containing 0.2 mM sodium metabisulfite, and incubated at 37° C. for 90 min. DiscoverX reagent was added to cells according to the manufacturer's protocol, followed by a 60 min incubation in the dark at room temperature. Luminescence was measured on a Hamamatsu FDSS μ-Cell reader (Hamamatsu, Bridgewater, N.J.) and data were collected using the FDSS software.
Each PAM was also examined in the absence of DA as an agonist, as indicated.

D2R = D2R (Homo sapiens, UniProt P14416); test: D2R β-arrestin BRET assay
D2R, sequence (P14416 whole entry): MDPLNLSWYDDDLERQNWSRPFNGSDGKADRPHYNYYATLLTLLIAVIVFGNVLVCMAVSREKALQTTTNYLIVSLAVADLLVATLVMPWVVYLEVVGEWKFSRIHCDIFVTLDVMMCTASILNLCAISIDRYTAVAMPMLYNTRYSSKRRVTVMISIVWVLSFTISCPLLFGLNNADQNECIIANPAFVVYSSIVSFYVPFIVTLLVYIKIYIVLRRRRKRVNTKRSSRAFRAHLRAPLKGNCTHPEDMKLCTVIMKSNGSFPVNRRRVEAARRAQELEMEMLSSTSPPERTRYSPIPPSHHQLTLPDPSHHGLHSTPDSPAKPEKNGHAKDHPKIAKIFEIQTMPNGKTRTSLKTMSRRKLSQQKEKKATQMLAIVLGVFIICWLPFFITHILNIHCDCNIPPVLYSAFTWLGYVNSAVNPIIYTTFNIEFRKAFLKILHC
Procedure: (§3) Bioluminescence Resonance Energy Transfer (BRET) Assays. Experiments were performed in HEK239 cells transiently transfected with D1R-RLuc8 and β-arrestin-mVenus (β-arrestin BRET) or Gαs-mVenus+β1+γ2 (Gs BRET) using the polyethylenimine (PEI) transfection method. […] Appropriate amounts of DNA were combined with 3 μg/μL PEI per μg of DNA in nonsupplemented DMEM and incubated with the cells overnight. Experiments were performed 48 hours post-transfection. On experiment day, cells were collected and resuspended in Dulbecco's Phosphate-Buffered Saline (DPBS) with Ca2+ and Mg2++0.2 mM sodium metabisulfite+5.5 mM glucose.

D3R = D3R (Homo sapiens, UniProt P35462); test: D3R β-arrestin BRET assay; details: 50 μM compound
D3R, sequence (P35462 whole entry): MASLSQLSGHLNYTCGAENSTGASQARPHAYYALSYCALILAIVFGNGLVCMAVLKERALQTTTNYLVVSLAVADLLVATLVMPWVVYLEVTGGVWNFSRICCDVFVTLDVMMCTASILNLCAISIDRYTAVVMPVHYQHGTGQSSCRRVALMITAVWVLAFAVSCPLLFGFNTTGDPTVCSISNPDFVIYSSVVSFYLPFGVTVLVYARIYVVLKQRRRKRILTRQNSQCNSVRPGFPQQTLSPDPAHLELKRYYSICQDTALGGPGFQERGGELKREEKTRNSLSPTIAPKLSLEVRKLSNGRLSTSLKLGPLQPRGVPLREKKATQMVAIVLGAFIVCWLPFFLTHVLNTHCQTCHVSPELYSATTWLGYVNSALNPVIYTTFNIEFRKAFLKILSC
Procedure: as §3

D4R [5] = biological target: T3, D4R (Homo sapiens, UniProt P21917); test: D4R β-arrestin BRET assay; details: 50 μM compound
T3 sequence (P21917 1-419): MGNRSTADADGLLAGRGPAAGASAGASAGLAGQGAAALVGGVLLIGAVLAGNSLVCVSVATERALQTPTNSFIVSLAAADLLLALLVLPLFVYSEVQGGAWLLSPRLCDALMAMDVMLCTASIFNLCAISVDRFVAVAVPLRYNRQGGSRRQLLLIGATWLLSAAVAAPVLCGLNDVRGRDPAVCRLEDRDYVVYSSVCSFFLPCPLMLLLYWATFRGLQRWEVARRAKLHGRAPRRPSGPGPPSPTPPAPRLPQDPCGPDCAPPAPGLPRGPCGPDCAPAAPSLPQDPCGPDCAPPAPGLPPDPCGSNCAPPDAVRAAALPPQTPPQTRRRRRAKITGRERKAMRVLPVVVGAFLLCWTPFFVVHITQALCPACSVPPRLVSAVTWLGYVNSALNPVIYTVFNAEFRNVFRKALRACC
Procedure: as §3

β2AR = β2AR (Homo sapiens, UniProt P07550); test: β2AR β-arrestin BRET assay
β2AR, sequence (P07550 whole entry): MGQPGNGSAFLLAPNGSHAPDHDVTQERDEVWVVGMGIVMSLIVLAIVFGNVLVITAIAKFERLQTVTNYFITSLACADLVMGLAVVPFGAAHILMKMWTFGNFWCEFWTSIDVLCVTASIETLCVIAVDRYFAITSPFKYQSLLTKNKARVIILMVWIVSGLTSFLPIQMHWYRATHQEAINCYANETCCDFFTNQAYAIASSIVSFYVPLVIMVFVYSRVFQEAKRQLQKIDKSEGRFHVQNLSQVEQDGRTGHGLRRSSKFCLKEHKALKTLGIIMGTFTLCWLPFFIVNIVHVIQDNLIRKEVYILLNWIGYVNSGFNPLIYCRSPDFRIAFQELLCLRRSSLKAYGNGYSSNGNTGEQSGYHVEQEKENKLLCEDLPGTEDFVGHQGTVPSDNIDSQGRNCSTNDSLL
Procedure: as §3

human D1R [6] = biological target: T1, human D1R; test: D1 cAMP accumulation assay (D1R-HEK293 cells, DiscoverX HitHunter); details: for D1 cAMP: DA + 50 μM PAM, Fold Chg EC50: fold change of dopamine EC50, 50 μM compound
Procedure: as §2

human D1R [7] = biological target: T1, human D1R; test: D1R β-arrestin recruitment assay (DiscoverX PathHunter, CHO-K1 cells); parameters: Emax: dose or concentration left out as unconfirmed; details: for D1 Beta-Arrestin: DA + 50 μM PAM, Fold Chg EC50: fold change of dopamine EC50, 50 μM compound
D4R [8] = biological target: T3, D4R; test: D4 β-arrestin recruitment assay (DiscoverX PathHunter, CHO-K1 cells); format: cell-based; parameters: inferred from the same PathHunter system described for D1R and D5R; host or cells: CHO-K1; details: for D4 Beta-Arrestin: DA + 50 μM PAM, Fold Change EC50: fold change of dopamine EC50, 50 μM compound
Procedure: as §1, with “Assay. Agonist-mediated recruitment of β-arrestin-2 to all five DARs was determined using the DiscoveRx PathHunter complementation assay (DiscoverX Inc, Fremont, Calif.), as previously described (Free, et. al., 2014; Conroy, et. al., 2015).” for “Assay.”

[9] = allosteric ternary complex model
[10] = operational model of allosterism

T1 sequence (P21728 whole entry): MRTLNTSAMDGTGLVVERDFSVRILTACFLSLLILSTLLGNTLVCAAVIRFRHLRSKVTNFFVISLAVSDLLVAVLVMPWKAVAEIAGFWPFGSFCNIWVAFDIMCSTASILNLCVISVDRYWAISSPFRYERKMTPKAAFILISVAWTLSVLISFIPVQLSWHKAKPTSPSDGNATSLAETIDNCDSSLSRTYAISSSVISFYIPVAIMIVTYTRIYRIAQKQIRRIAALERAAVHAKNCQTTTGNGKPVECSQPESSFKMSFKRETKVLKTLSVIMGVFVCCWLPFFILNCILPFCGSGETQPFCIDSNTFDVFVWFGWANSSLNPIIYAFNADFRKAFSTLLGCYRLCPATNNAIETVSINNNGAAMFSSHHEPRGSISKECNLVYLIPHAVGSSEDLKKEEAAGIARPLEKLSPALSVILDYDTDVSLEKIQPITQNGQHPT

`Cn1c2ccccc2c(=O)c2c(=O)n(-c3ccccc3)c(C3CCCCC3)nc21` [Compound 1, 2-Cyclohexyl-10-methyl-3-phenylpyrimido[4,5-b]quinoline-4,5(3H,10H)-dione] was tested, and the Kb (human D1R [1]) was 540 nM, the “log α” value (human D1R [1]; [9]) was 0.49±0.07 and the “α (binding cooperativity between PAM and dopamine)” value (human D1R [1]; [9]) was 3.09. For the same compound, the “effect on [3H]-SCH23390 binding” value (human D1R [1]; compound alone, up to 50 μM) was “no displacement”, the “leftward shift of dopamine competition curve (increase in dopamine affinity)” value (human D1R [1]; dopamine competition with [3H]-SCH23390, increasing concentrations of compound) was about 3 fold and the “decrease of [3H]-SCH23390 binding” value (human D1R [1]; highest concentration tested, 50 μM) was about 17%. The “effect on forskolin stimulated cAMP accumulation” value [2] was “does not significantly increase”, the “D5 cAMP: DA + 50 μM PAM, Fold Change EC50” value (“D5 cAMP … Fold Change EC50” below) (D5 [3]) was 2.14 and the “fold change of dopamine EC50 for β-arrestin recruitment to D5R” value (D5 [4]; 50 μM compound) was 2.5 fold. For the same compound, the “Dopamine D5-β-arrestin Assay: DA + 50 μM PAM, Fold Change EC50” value (D5 [4]; Table 6, 50 μM compound) was 2.56, the “D5 Beta-Arrestin: DA + 50 μM PAM, Fold Change EC50” value (“D5 Beta-Arrestin … Fold Change EC50” below) (D5 [4]) was 2.56 and the “agonist response of PAM alone at D5R” value (D5 [4]; in the absence of DA) was “Neither PAM produced an agonist response”. For the same compound, the “potentiation of dopamine response at D2R” value (D2R; 50 μM compound) was “Neither PAM produced any measurable potentiation”, the “potentiation of dopamine response at D3R” value (D3R) was “Neither PAM produced any measurable potentiation” and the “potentiation of dopamine response at D4R” value (D4R [5]) was “Neither PAM produced any measurable potentiation”. The “potentiation of epinephrine response at β2AR” value (β2AR; 50 μM compound) was “Neither PAM produced any measurable potentiation”, the “increase in dopamine potency for cAMP accumulation” value (human D1R [6]; 50 μM compound vs DA alone) was 3 fold and the “agonist activity for cAMP accumulation” value (human D1R [6]; compound alone) was “Neither compound 1 (FIGS. 3A and 3B) nor compound 28 (FIGS. 3C and 3D) demonstrated any agonist activity”. The “D1 cAMP: DA + 50 μM PAM, Fold Chg EC50” value (human D1R [6]) was 1.83, the Kb (human D1R [7]) was 460 nM and the “increase in dopamine potency (EC50) for β-arrestin recruitment to D1R” value (human D1R [7]; 50 μM compound vs DA alone) was 7 fold and 5 fold and 4.6 fold. For the same compound, the Emax (human D1R [7]; CHO-K1, read-out: increase in dopamine efficacy (Emax) for β-arrestin recruitment to D1R) was 20%, the “Dopamine D1-β-arrestin Assay: DA + 50 μM PAM, Fold Change EC50” value (human D1R [7]; Table 5, 50 μM compound) was 4.64 and the “agonist activity of PAM alone, β-arrestin recruitment” value (human D1R [7]; concentration response with the PAM, no dopamine) was “Neither PAM displayed any measurable agonist activity”. The “effect on potency of D1R partial agonists” value (human D1R [7]; fenoldopam, apomorphine, SKF38393, SKF77434) was “Neither PAM altered the potency”, the “D1 Beta-Arrestin: DA + 50 μM PAM, Fold Chg EC50” value (“D1 Beta-Arrestin … Fold Chg EC50” for short) (human D1R [7]) was 4.64 and the “log β (modulatory effect on dopamine efficacy)” value (human D1R [7]; [10]) was 0.41±0.06. For the same compound, the “β (modulatory effect on dopamine efficacy)” value (human D1R [7]; [10]) was 2.57, the “increase in SKF77434-stimulated response” value (human D1R [7]; partial agonist SKF77434 + PAM, text says cAMP accumulation, FIG. 5D legend β-arrestin) was 130% and the “increase in efficacy of SKF38393” value (human D1R [7]; β-arrestin recruitment, G-protein biased partial agonist SKF38393 + PAM) was 111%. The “increase in efficacy of apomorphine” value (human D1R [7]; β-arrestin recruitment, partial agonist apomorphine + PAM) was 95%, the “increase in efficacy of fenoldopam” value (human D1R [7]; β-arrestin recruitment, partial agonist fenoldopam + PAM) was 48% and the “Dopamine D4-β-arrestin Assay: DA + 50 μM PAM, Fold Change EC50” value (D4R [8]; Table 7, 50 μM compound) was 1.06. For the same compound, the “D4 Beta-Arrestin: DA + 50 μM PAM, Fold Change EC50” value (shortened to “D4 Beta-Arrestin … Fold Change EC50”) (D4R [8]) was 1.06.
With `CC(C)(C)C1CCc2c(sc(NC(=O)c3cncc(Br)c3)c2C(N)=O)C1` (stereo not drawn) [Compound 29] the “D5 cAMP … Fold Change EC50” value (D5 [3]) was 0.66, the “D5 Beta-Arrestin … Fold Change EC50” value (D5 [4]) was 1.68 and the “D1 cAMP: DA + 50 μM PAM, Fold Chg EC50” value (human D1R [6]) was 1.30. The “D1 Beta-Arrestin … Fold Chg EC50” value (human D1R [7]) was 1.05 and the “D4 Beta-Arrestin … Fold Change EC50” value (D4R [8]) was 1.20.
In the case of `CC(C)(C)C1CCc2c(sc(NC(=O)c3ccccn3)c2C(N)=O)C1` (stereo not drawn) [Compound 30], the “D5 cAMP … Fold Change EC50” value (D5 [3]) was 0.60, the “D5 Beta-Arrestin … Fold Change EC50” value (D5 [4]) was 0.48 and the “D1 cAMP: DA + 50 μM PAM, Fold Chg EC50” value (human D1R [6]) was 1.31. For the same compound, the “D1 Beta-Arrestin … Fold Chg EC50” value (human D1R [7]) was 1.05 and the “D4 Beta-Arrestin … Fold Change EC50” value (D4R [8]) was 0.43.
With `CC1CCc2c(sc(NC(=O)c3ccc4ccccc4n3)c2C(N)=O)C1` (stereo not drawn) [Compound 31] the “D5 cAMP … Fold Change EC50” value (D5 [3]) was 0.45, the “D5 Beta-Arrestin … Fold Change EC50” value (D5 [4]) was 0.83 and the “D1 cAMP: DA + 50 μM PAM, Fold Chg EC50” value (human D1R [6]) was 1.20. For the same compound, the “D1 Beta-Arrestin … Fold Chg EC50” value (human D1R [7]) was 1.35 and the “D4 Beta-Arrestin … Fold Change EC50” value (D4R [8]) was 1.34.
In the case of `CC(C)(C)C1CCc2c(sc(NC(=O)c3ccc4ccccc4n3)c2C(N)=O)C1` (stereo not drawn) [Compound 32], the “D5 cAMP … Fold Change EC50” value (D5 [3]) was 1.25, the “D5 Beta-Arrestin … Fold Change EC50” value (D5 [4]) was 0.92 and the “D1 cAMP: DA + 50 μM PAM, Fold Chg EC50” value (human D1R [6]) was 1.28. The “D1 Beta-Arrestin … Fold Chg EC50” value (human D1R [7]) was 0.77 and the “D4 Beta-Arrestin … Fold Change EC50” value (D4R [8]) was 0.73.
With `CC1CCc2c(sc(NC(=O)c3ccncc3)c2C(N)=O)C1` (stereo not drawn) [Compound 33] the “D5 cAMP … Fold Change EC50” value (D5 [3]) was 1.57, the “D5 Beta-Arrestin … Fold Change EC50” value (D5 [4]) was 1.86 and the “D1 cAMP: DA + 50 μM PAM, Fold Chg EC50” value (human D1R [6]) was 1.53. For the same compound, the “D1 Beta-Arrestin … Fold Chg EC50” value (human D1R [7]) was 0.97 and the “D4 Beta-Arrestin … Fold Change EC50” value (D4R [8]) was 0.81.
With `CN1CCc2c(sc(NC(=O)c3ccncc3)c2C#N)C1` [Compound 34] the “D5 cAMP … Fold Change EC50” value (D5 [3]) was 1.45, the “D5 Beta-Arrestin … Fold Change EC50” value (D5 [4]) was 1.28 and the “D1 cAMP: DA + 50 μM PAM, Fold Chg EC50” value (human D1R [6]) was 1.30. For the same compound, the “D1 Beta-Arrestin … Fold Chg EC50” value (human D1R [7]) was 0.61 and the “D4 Beta-Arrestin … Fold Change EC50” value (D4R [8]) was 0.96.
In the case of `CC1CCc2c(sc(NC(=O)c3cccnc3)c2C(N)=O)C1` (stereo not drawn) [Compound 35], the “D5 cAMP … Fold Change EC50” value (D5 [3]) was 0.76, the “D5 Beta-Arrestin … Fold Change EC50” value (D5 [4]) was 1.06 and the “D1 cAMP: DA + 50 μM PAM, Fold Chg EC50” value (human D1R [6]) was 1.79. The “D1 Beta-Arrestin … Fold Chg EC50” value (human D1R [7]) was 0.97 and the “D4 Beta-Arrestin … Fold Change EC50” value (D4R [8]) was 1.07.
In the case of `NC(=O)c1c(NC(=O)c2ccccn2)sc2c1CCCC2` [Compound 36], the “D5 cAMP … Fold Change EC50” value (D5 [3]) was 0.86, the “D5 Beta-Arrestin … Fold Change EC50” value (D5 [4]) was 0.26 and the “D1 cAMP: DA + 50 μM PAM, Fold Chg EC50” value (human D1R [6]) was 2.50. For the same compound, the “D1 Beta-Arrestin … Fold Chg EC50” value (human D1R [7]) was 0.83 and the “D4 Beta-Arrestin … Fold Change EC50” value (D4R [8]) was 1.19.
`CC1CCc2c(sc(NC(=O)c3ccccn3)c2C(N)=O)C1` (stereo not drawn) [Compound 37] was tested, and the “D5 cAMP … Fold Change EC50” value (D5 [3]) was 1.64, the “D5 Beta-Arrestin … Fold Change EC50” value (D5 [4]) was 0.47 and the “D1 cAMP: DA + 50 μM PAM, Fold Chg EC50” value (human D1R [6]) was 1.61. For the same compound, the “D1 Beta-Arrestin … Fold Chg EC50” value (human D1R [7]) was 1.05 and the “D4 Beta-Arrestin … Fold Change EC50” value (D4R [8]) was 1.06.
With `NCCc1ccc(O)c(O)c1` [Dopamine, dopamine, reference compound] the “D2R Agonist Emax (% Ctrl)” value (D2R; dopamine alone, mean ± SEM) was 100 ± 12.48 % Ctrl.
`CNC[C@H](O)c1ccc(O)c(O)c1` [Epinephrine, epinephrine, reference compound] was tested, and the “β2AR Agonist Emax (% Ctrl)” value (β2AR; epinephrine alone, mean ± SEM) was 99.9 ± 1.18 % Ctrl.
